# Experimental data reported in EP4722195A1, “PH-SENSITIVE CATIONIC LIPID AND LIPID NANOPARTICLES” (National University Corporation Hokkaido University, priority 2023, dated 2024).
# Columns and labels:
# [1] = Apparent pKa of lipid nanoparticles (TNS)
# Procedure: The apparent pKa of the lipid nanoparticles was measured using p-toluenesulfonic acid (TNS). First, TNS (final concentration: 0.75 µM) and lipid nanoparticles (final concentration: 30 µM) were mixed in a buffer (200 mL) adjusted to each pH (pH 3.5 to 9.5). As the buffer, 20 mM citrate buffer, 20 mM sodium phosphate buffer, or 20 mM Tris-HCl buffer containing 130 mM NaCl was used. The fluorescence intensity of the prepared mixture was measured using a fluorescence spectrophotometer (Varioskan Lux, manufactured by Thermo Fisher Scientific) with the settings of λex=321 nm and λem=447 nm. Among the measured values, the highest value and the lowest value were set as 100% and 0% ionization degrees, respectively, and the pH showing a 50% ionization degree was calculated as the apparent pKa. The content ratio (%) of cationically charged pH-sensitive cationic lipid was calculated using the Henderson-Hasselbalch equation.
# [2] = Zeta potential of lipid nanoparticles; assay type: physicochemical
# Procedure: The average particle size (number average value), ζ-average particle size, and polydispersity index (PdI) of the lipid nanoparticles in PBS(-) (pH 7.4), and the zeta potential in 10 mM HEPES buffer (pH 7.4) were measured using an analyzer "Zetasizer Nano ZS ZEN3600" (manufactured by Malvern) utilizing dynamic light scattering.
# [3] = Encapsulation rate of lipid nanoparticles (Ribogreen); assay type: physicochemical
# How it was run: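 Ribogreen fluorescence (Ex/Em 500/525 nm) measured after mixing sample 1:1 with 10 mM HEPES pH 7.4 buffer with or without Triton X-100. mRNA quantified from a calibration curve of known mRNA dilutions; encapsulation rate (%) calculated from Triton(+) versus Triton(−) signals.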
# liver [4] = assay: EGFP expression in liver tissue sections of mice administered EGFP mRNA-loaded lipid nanoparticles (confocal microscopy); assay type: in vivo, Balb/c mice; conditions: Example 27, Fig. 6; EGFP mRNA-loaded lipid nanoparticles TxT/DSPC/chol/PEG-DMG=50/3/47/1.5 (mol%); 24 hours post-administration
# How it was run: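 Balb/c mice received EGFP mRNA-loaded lipid nanoparticles at 0.2 mg mRNA/kg, with DyLight-649 tomato lectin given i.v. at 40 µg/mouse at 23 h 50 min to mark vascular endothelium. Livers taken at 24 h were sectioned, Hoechst 33342-stained (1 µg/mL), and imaged by confocal laser scanning microscopy.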
# liver [5] = assay: Fluc activity in the liver of mice administered Fluc mRNA-loaded lipid nanoparticles; assay type: in vivo, BALB/c mice
# Procedure: Lipid nanoparticles were administered to mice by intravenous injection into the tail vein using a 27G needle. Unless otherwise specified, BALB/c mice (4 to 5 weeks old, female) were used.
# First, BALB/c mice (female, 4 weeks old) were intravenously injected with lipid nanoparticles encapsulating Fluc mRNA (Fluc mRNA-loaded lipid nanoparticles) at a dose of 0.1 mg mRNA/kg. Six hours after intravenous injection, the mice were euthanized, each tissue was collected, frozen in liquid nitrogen, and stored at -80°C. The tissues were homogenized in passive lysis buffer (manufactured by Promega) using a bead-type cell disruptor (Micro Smash MS-100R, manufactured by TOMY Seiko). Tissue debris was removed by centrifugation, and the supernatant was collected. Fluc activity in the supernatant was measured using the Luciferase Assay System (E1500, manufactured by Promega) according to the manufacturer's protocol. Luminescence was measured using a luminometer (Luminescencer-PSN, manufactured by ATTO). Protein concentration was determined using a commercially available assay kit (BCA Protein Assay Kit, manufactured by Pierce). Fluc activity was expressed as relative light units (RLU) per mg of protein.
# Subsequently, lipid nanoparticles encapsulating Fluc mRNA prepared using TxT-5-5A10, TxT-5-5A12, TxT-5-5A12β, TxT-5-5A14, and TxT-5-5A16 were administered to mice to evaluate luciferase expression levels (Fluc activity) in various tissues. Specifically, each Fluc mRNA-loaded lipid nanoparticle was administered to Balb/c mice at a dose of 0.1 mg mRNA/kg. Six hours after administration, the mice were euthanized, and their organs were collected to measure Fluc activity (RLU/mg protein) (N = 2 or 4).
# [6] = Table 2, Fluc mRNA-loaded lipid nanoparticles, TxT-5-5A16/DSPC/chol/PEG-DMG=50/X/50-X/1.5 (mol%), DSPC concentration 3 mol %
# [7] = Table 2, Fluc mRNA-loaded lipid nanoparticles, TxT-5-5A16/DSPC/chol/PEG-DMG=50/X/50-X/1.5 (mol%), DSPC concentration 6 mol %
# [8] = Table 2, Fluc mRNA-loaded lipid nanoparticles, TxT-5-5A16/DSPC/chol/PEG-DMG=50/X/50-X/1.5 (mol%), DSPC concentration 9 mol %
# [9] = Table 2, Fluc mRNA-loaded lipid nanoparticles, TxT-5-5A16/DSPC/chol/PEG-DMG=50/X/50-X/1.5 (mol%), DSPC concentration 12 mol %
# [10] = Table 2, Fluc mRNA-loaded lipid nanoparticles, TxT-5-5A16/DSPC/chol/PEG-DMG=50/X/50-X/1.5 (mol%), DSPC concentration 15 mol %
# [11] = Table 3, Fluc mRNA-loaded lipid nanoparticles, TxT/DSPC/chol/PEG-DMG=50/3/47/1.5 (mol%)
# [12] = Table 1, Fluc mRNA-loaded lipid nanoparticles, TxT/DSPC/chol/PEG-DMG=50/15/35/1.5 (mol%)
# [13] = Table 5, EGFP mRNA-loaded lipid nanoparticles, TxT/DSPC/chol/PEG-DMG=50/3/47/1.5 (mol%), total flow rate 3.0 mL/min
# [14] = Example 23, Fig. 2A, TxT-5-5A16/DSPC/chol/PEG-DMG=50/X/50-X/1.5 (mol%), 0.1 mg mRNA/kg, six hours
smiles,measurement,setting,value
"CCCCCCCCN(CCCCCCCC)C(=O)CCCC(=O)OCC(COC(=O)CCCC(=O)N(CCCCCCCC)CCCCCCCC)(COC(=O)CCCC(=O)N(CCCCCCCC)CCCCCCCC)NC(=O)CCN1CCCCC1 [TxT-5-5A16, 2-(((5-(dioctylamino)-5-oxopentanoyl)oxy)methyl)-2-(3-(piperidin-1-yl)propanamido)propane-1,3-diyl bis(5-(dioctylamino)-5-oxopentanoate)]",pKa,"[1]; Table 1, apparent pKa of Fluc mRNA-loaded lipid nanoparticles, TxT/DSPC/chol/PEG-DMG=50/15/35/1.5 (mol%)",6.27
same,pKa,[1]; [6],6.28
same,pKa,[1]; [7],5.88
same,pKa,[1]; [8],5.41
same,pKa,[1]; [9],6.24
same,pKa,[1]; [10],6.36
same,pKa,[1]; [11],6.28
same,ζ-potential,[2]; [12],-3.3 mV
same,ζ-potential,[2]; [6],-2.7 mV
same,ζ-potential,[2]; [7],-2.4 mV
same,ζ-potential,[2]; [8],-2.2 mV
same,ζ-potential,[2]; [9],-1.9 mV
same,ζ-potential,[2]; [10],-4.1 mV
same,ζ-potential,[2]; [11],-2.7 mV
same,ζ-potential,[2]; [13],-8.4 mV
same,mRNA concentration,[3]; [12],0.020 µg/µL
same,mRNA encapsulation rate,[3]; [12],96.7%
same,mRNA concentration,[3]; [6],0.023 µg/µL
same,mRNA encapsulation rate,[3]; [6],98.8%
same,mRNA concentration,[3]; [7],0.024 µg/µL
same,mRNA encapsulation rate,[3]; [7],98.9%
same,mRNA concentration,[3]; [8],0.024 µg/µL
same,mRNA encapsulation rate,[3]; [8],98.3%
same,mRNA concentration,[3]; [9],0.024 µg/µL
same,mRNA encapsulation rate,[3]; [9],97.0%
same,mRNA concentration,[3]; [10],0.020 µg/µL
same,mRNA encapsulation rate,[3]; [10],95.6%
same,mRNA concentration,[3]; [11],0.023 µg/µL
same,mRNA encapsulation rate,[3]; [11],98.8%
same,mRNA concentration,[3]; [13],0.022 µg/µL
same,mRNA encapsulation rate,[3]; [13],99.2%
same,fluorescence of EGFP in the liver tissues,liver [4],not detectable
same,Fluc activity in the liver,"liver [5]; Example 22, Fig. 1, TxT/DSPC/chol/PEG-DMG=50/15/35/1.5 (mol%), 0.1 mg mRNA/kg intravenous, six hours after administration, comparison among TxT lipids",highest Fluc activity in the liver
same,Effect of DSPC content on Fluc activity in the liver,liver [5]; [14],Fluc activity increased as the DSPC content decreased
same,"Fluc activity in the liver, 3 mol% DSPC compared to 15 mol% DSPC",liver [5]; [14],approximately 10 times
